Results: EP0733365A2, “Use of benzoquinolin-3-ones for the treatment and prevention of prostatic cancer” (priority 1995, dated 1996)
“And” between values parts separate entries of the source, which are not always exact repeats. Equal entries are not always repeated.

Each molecule was assayed against T1, Type I 5α-reductase (Homo sapiens, UniProt P18405) (assay: Human Type I steroid 5α-reductase homogenate assay (conversion of [3H]-testosterone to [3H]-DHT and other 5α-reduced metabolites)). Details: 0.3 µM concentration of compound, compared to control reaction mixtures.
T1 construct: Scalp punch biopsies from graft recipient sites were obtained; from tissue; host or cells: human scalp skin (punch biopsies from hair transplant procedures); 100,000 x g pellet of the homogenate
T1 sequence (P18405 1-259): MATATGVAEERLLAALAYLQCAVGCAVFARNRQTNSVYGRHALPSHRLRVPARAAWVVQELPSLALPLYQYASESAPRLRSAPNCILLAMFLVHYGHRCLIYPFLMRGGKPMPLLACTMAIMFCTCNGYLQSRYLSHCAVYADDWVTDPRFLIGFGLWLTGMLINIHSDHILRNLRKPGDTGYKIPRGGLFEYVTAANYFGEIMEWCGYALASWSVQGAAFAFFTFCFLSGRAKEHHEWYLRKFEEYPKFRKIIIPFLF
Assay type: biochemical
Protocol: Methodology of Human Type I Steroid 5α-Reductase Assays
Preparation of Type I 5α-Reductase from Human Scalp: Scalp punch biopsies from graft recipient sites were obtained, following the proper Informed Consent and Institutional Review Board guidelines, from human hair transplant procedures immediately after surgery and were frozen on dry ice and stored at -80°C. Approximately 60-75 punches from one surgical procedure were used to generate an enzyme preparation. The subcutaneous tissue was cut away and discarded. The skin was frozen with liquid nitrogen and pulverized to powder. The powder was homogenized in 30 mL of ice-cold buffer (20 mM Tris-HCl, pH 7.5) using a Brinkmann Polytron (Westbury, NY) with a PTA 10-S probe and a setting of 7. The homogenization procedure consisted of four 15 second pulses. Connective tissue was cleared from the probe with forceps between pulses. The homogenate was then filtered through cheese cloth and the filtrate centrifuged at 100,000 x g for one hour in a Beckman L8-60M ultracentrifuge. The pellet was resuspended by homogenization with a Dounce homogenizer using the same buffer solution. An aliquot was taken for protein determination by the Lowry method, Lowry, et al., Protein Measurement with the Folin Phenol Reagent, J. Biol. Chem., 193, 265-75 (1951). Aliquots of the enzyme preparation were stored at -80° until use. Human 5α-Reductase Homogenate Assay: This enzyme assay is based on the conversion of [^3H]-testosterone to [^3H]-5α -dihydrotestosterone (DHT) and other 5α-reduced metabolites. […] In a total volume of 1.0 mL, the Type I assay contained 2.6 µCi [^3H]-testosterone (50 nM), 500 µM of reduced nicotine adenine dinucleotide phosphate, 100 mM Tris-HCl, pH 7.5, (in Type II assays, 40 mM sodium acetate at pH 5.5 is used instead of Tris-HCl) and test compounds as indicated. Test compounds were added in 20 µL of dimethylsulfoxide (20 µL of dimethylsulfoxide was added to blanks and controls). The reaction was initiated by the addition of 0.5 mg of Type I 5α-reductase. The reaction mixture was incubated at 25° for 180 min, and terminated by the addition of 1 mL ice-cold stopping solution. The stopping solution contained 40 µM each of non-radioactive testosterone, DHT, androstenedione, androstanedione, androsterone, androstan-3β17β- diol, and androstan-3α,17β-diol. The samples were prepared for high performance liquid chromatography by solid phase extraction. Disposable solid matrix extraction columns (C-18 reversed phase, 6 mL, 500 mg; Bond Elut™ from Analytichem International; Harbor City, CA) were conditioned by washing with 5 mL of methanol followed by 5 mL of deionized water. The reaction mixtures were then applied to the columns. The columns were subsequently washed with 5 mL of acetone:water (1:4), followed by 0.3 mL of methanol. The samples were then eluted with 3 mL of methanol and collected in 20 mL scintillation vials. Three mL of water was then added to each scintillation vial. The solutions were then transferred to tubes and centrifuged for 30 min at 1000 x g to remove any particulate material before chromatography. The [^3H]-testosterone substrate and its metabolites were separated by chromatography using a C-18 reversed phase column (Beckman Ultrasphere 5µm spherical 80A pore, part no. 235329, 4.6 mm i.d. x […]) with an isocratic mobile phase (46 water: 46 methanol: 8 tetrahydrofuran by volume). The column temperature was maintained at 35° and the flow rate was 1.5 mL/min. A 400 µL aliquot was injected onto the column and radioactivity was determined using a Beckman 171 in-line flow radioisotope detector in conjunction with Rainin Dynamax™ software and a Macintosh computer. The flow rate of the Atomflow™ scintillation fluid was 4.5 mL / min.

| Molecule | percent inhibition of Type I 5AR |
| --- | --- |
| (+)-(4aR)-(10bR)-4-methyl-8-(2aR,4S-1-benzoyl-4-amino-2,2a,3,4-tetrahydrobenz[cd]-1H-indol-7-yl)-10b-methyl-1,2,3,4,4a,5,6,10b-octahydrobenzo[f]quinolin-3-one [Example 226] | 16% |
| (+)-(4aR)-(10bR)-4-methyl-8-(2aR,4S-1-benzoyl-4-dipropylamino-2,2a,3,4-tetrahydrobenz[cd]-1H-indol-7-yl)-10b-methyl-1,2,3,4,4a,5,6,10b-octahydrobenzo[f]quinolin-3-one [Example 225] | 47% |
| (+)-(4aR)-(10bR)-4-methyl-8-(3-[1-benzyl-4-piperidinylcarboxamidolphenyl)-10b-methyl-1,2,3,4,4a,5,6,10b-octahydrobenzo[f]quinolin-3-one [Example 209] | 24% |
| CN1C(=O)CC[C@]2(C)c3ccc(-c4ccc(-c5ccc(NC(=O)C(C)(C)C)s5)cc4)cc3CC[C@@H]12 [Example 222, (+)-(4aR)-(10bR)-4-methyl-8-(4-[(2-t-butylcarbonylamino]-5-thienyl]phenyl)-10b-methyl-1,2,3,4,4a,5,6,10b-octahydrobenzo[f]quinolin-3-one] | 86% |
| (+)-(4aR)-(10bR)-4-methyl-8-benzyloxycarbonyl-10b-methyl-1,2,3,4,4a,5,6,10b-octahydrobenzo[f]quinolin-3-one [Example 144] | 90% |
| CN1C(=O)CC[C@]2(C)c3ccc(Sc4nc5c(ccc6ccccc65)s4)cc3CC[C@@H]12 [Example 163, (+)-(4aR)-(10bR)-4-methyl-8-(2-naphtho〈1,2-d〉-thiazolylthio)-10b-methyl-1,2,3,4,4a 5,6,10b-octahydrobenzo[f]-quinolin-3-one] | 80% |
| (+)-(4aR)-(10bR)-4-methyl-8-(2-[6-benzyloxy]naphthyl)-10b-methyl-1,2,3,4,4a,5,6,10b-octahydrobenzo[f]quinolin-3-one [Example 62] | 45% |
| (+)-(4aR)-(10bR)-4-methyl-8-(4-fluoro-3-trifluoromethylphenyl)-10b-methyl-1,2,3,4,4a,5,6,10b-octahydrobenzo[f]quinolin-3-one [Example 46] | 3% |
| C[C@]12CCC(=O)N[C@@H]1CCc1cc(-c3cnc4ccccc4c3)ccc12 [Example 196, (+)-(4aR)-(10bR)-8-(3-quinolinyl)-10b-methyl-1,2,3,4,4a,-5,6,10b-octahydrobenzo[f]quinolin-3-one] | 11% |
| Cc1cccc2sc(Sc3ccc4c(c3)CC[C@H]3N(C)C(=O)CC[C@]43C)nc12 [Example 159, (+)-(4aR)-(10bR)-4-methyl-8-(4-methyl-2-benzothiazolylthio)-10b-methyl-1,2,3,4,4a,5,6,10b-octahydrobenzo[f]quinolin-3-one] | 87, 87% |

Same assay, conditions: 0.3 µM concentration of compound, compared to control reaction mixtures; 0.3 µM

| Molecule | percent inhibition of Type I 5AR |
| --- | --- |
| CN1C(=O)CC[C@]2(C)c3ccc(-c4cc(F)c(F)c(F)c4)cc3CC[C@@H]12 [Example 206, (+)-(4aR)-(10bR)-4-methyl-8-(3,4,5-trifluorophenyl)-10b-methyl-1,2,3,4,4a,5,6,10b-octahydrobenzo[f]quinolin-3-one] | 100% |
| CN1C(=O)CC[C@]2(C)c3ccc(C=Cc4ccccc4)cc3CC[C@@H]12 [Example 285, (4aR)-(10bR)-4,10b-dimethyl-8-(2-phenylethenyl)-1,2,3,4,4a,5,6,10b-octahydrobenzo[f]quinolin-3-one] | 93% |
| CN1C(=O)CC[C@]2(C)c3ccc(-c4cccc5ccccc45)cc3CC[C@@H]12 [Example 53, (+)-(4aR)-(10bR)-4-methyl-8-(1-naphthyl)-10b-methyl-1,2,3,4,4a,5,6,10b-octahydrobenzo[f]quinolin-3-one] | 100% and 66% |
| CN1C(=O)CC[C@]2(C)c3ccc(Sc4nc5c(Cl)cccc5s4)cc3CC[C@@H]12 [Example 164, (+)-(4aR)-(10bR)-4-methyl-8-(4-chloro-2-benzothiazolylthio)-10b-methyl-1,2,3,4,4a,5,6,10b-octahydrobenzo[f]quinolin-3-one] | 87% |
| CN1C(=O)CC[C@]2(C)c3ccc(-c4ccc(Cl)cc4)cc3CC[C@@H]12 [Example 50, (+)-(4aR)-(10bR)-4-methyl-8-(4-chlorophenyl)-10b-methyl-1,2,3,4,4a,5,6,10b-octahydrobenzo[f]quinolin-3-one] | 94% |
| CN1C(=O)CC[C@]2(C)c3ccc(CCc4ccccc4)cc3CC[C@@H]12 [Example 280, (4aR)-(10bR)-4,10b-dimethyl-8-(2-phenylethyl)-1,2,3,4,4a,5,6,10b-octahydrobenzo[f]quinolin-3-one] | 100% |

Same assay, conditions: 0.3 µM concentration of compound, compared to control reaction mixtures; read-out: percent inhibition of Type I 5AR

| Molecule | inhibition at 0.3 µM |
| --- | --- |
| CN1C(=O)CC[C@]2(C)c3ccc(-c4ccc(NS(C)(=O)=O)cc4)cc3CC[C@@H]12 [Example 123, (+)-(4aR)-(10bR)-4-methyl-8-(4-methylsulfonamidophenyl)-10b-methyl-1,2,3,4,4a,5,6,10b-octahydrobenzo[f]quinolin-3-one] | 10% |
| CN1C(=O)CC[C@]2(C)c3ccc(/C=C/c4cnc5ccccc5c4)cc3CC[C@@H]12 [Example 282, (4aR)-(10bR)-4,10b-dimethyl-8-(2-[3-quinolinyl]ethenyl)-1,2,3,4,4a,5,6,10b-octahydrobenzo[f]quinolin-3-one] | 75% |
| CN1C(=O)CC[C@]2(C)c3ccc(/C=C/c4cncc5ccccc45)cc3CC[C@@H]12 [Example 281, (4aR)-(10bR)-4,10b-dimethyl-8-(2-[4-isoquinolinyl]ethenyl)-1,2,3,4,4a,5,6,10b-octahydrobenzo[f]quinolin-3-one] | 75% |
| C[C@]12CCC(=O)N[C@@H]1CCc1cc(Sc3ccccc3Cl)ccc12 (single isomer, unassigned) [Example 7] | 49% |
| CN1C(=O)CC[C@]2(C)c3ccc(/C=C/c4ccc5ccccc5n4)cc3CC[C@@H]12 [Example 283, (4aR)-(10bR)-4,10b-dimethyl-8-(2-[2-quinolinyl]ethenyl)-1,2,3,4,4a,5,6,10b-octahydrobenzo[f]quinolin-3-one] | 87% |
| CN1C(=O)CC[C@]2(C)c3ccc(-c4ccc5c(c4)CCC5O)cc3CC[C@@H]12 (single isomer, unassigned; (+)) [Example 245] | 54% |
| C[C@]12CCC(=O)N[C@@H]1CCc1cc(-c3cnc4ccccc4c3)ccc12 (single isomer, unassigned) [Example 45] | 11% |
| Cc1cccc2sc(Sc3ccc4c(c3)CC[C@H]3N(C)C(=O)CC[C@]43C)nc12 [Example 159, (+)-(4aR)-(10bR)-4-methyl-8-(4-methyl-2-benzothiazolylthio)-10b-methyl-1,2,3,4,4a,5,6,10b-octahydrobenzo[f]quinolin-3-one] | 87% |
| C[C@]12C=CC(=O)N[C@@H]1CCc1cc(-c3cc4ccccc4cn3)ccc12 [Example 142, (+)-(4aR)-(10bR)-8-(3-isoquinolinyl)-10b-methyl-3,4,4a,5,6,10b-hexahydrobenzo[f]quinolin-3-one] | 22% |

Same assay, conditions: read-out: percent inhibition of Type I 5AR, 0.3 µM concentration of compound, compared to control reaction mixtures

| Molecule | inhibition at 0.3 µM |
| --- | --- |
| CN1C(=O)CC[C@]2(C)c3ccc(C=Cc4ccccc4)cc3CC[C@@H]12 [Example 279, (4aR)-(10bR)-4,10b-dimethyl-8-(2-phenylethenyl)-1,2,3,4,4a,5,6,10b-octahydrobenzo[f]quinolin-3-one] | 85% |
